Columns and labels:
[1] = tested on: heat nociceptive stimulation; experiment: Anti-nociceptive activity test, tail-flick method; type: in vivo, mouse
Description: (1) Experimental animal, male ddy mice (Japan SLC), weighing the body weight in the range of 22 to 25 g, were used for the studies. The animals had been kept under constant conditions (room temperature 22±2° C., humidity 55±5%, 12 hours light-and-dark cycle having light time 9:00 to 21:00 and dark time 21:00 to 9:00) until used for an experiment. The animals were fed the mouse solid diet (F2, Funabashi farm. Funabashi, Japan) with unrestricted tap water intake.
SS8225-01, 02, 03 04, 05, 06, 07 and 08 as examples and SS8225-09, 10, 11 and 12 as comparison examples were used as the administered drugs. […] In addition only Liger solution was administered as an experimental control. The animals were left for 60 minutes in the plastic cage to become familiar to the environment prior to the test in which measured a latent time for each mouse before drug administration in accordance with a tail-flick method noted below. Heat was radiated to a part of each mouse tail which is 2 cm from the end of its tail. Each of heat radiation periods before beginning of tail-flick was measured as a false pain threshold. Mice which responded to the stimulation within 2.5 to 3.5 seconds were pre-selected for the test. Administration solution under one administration condition for one kind of drug was administered to one experimental animal group including 10 mice. After the body weight of each mouse was measured, each volume of the administration solution was adjusted to be 0.1 mL/10 g of mouse body weight and then the solution was administered. The administration methods were two methods of subcutaneous administration (s. c.) and oral administration (p. o.). On subcutaneous administration, the administration solution of 0.1 mL per 10 g of body weight (0.1 mL/10 g) was injected into the back of the mouse using 27 gauge needle. On oral administration, the administration solution of 0.1 mL per 10 g of body weight (0.1 mL/10 g) was administered using an oral sonde.
Heat was radiated to a part of each mouse's tail of respective experimental group, which is 2 cm from the end of its tail, at 15, 30 and 60 minutes after the drug administration according to the preset measurement interval and a latent time until respective mouse swung its tail was measured as a false pain threshold value. The maximum stimulation period (cut-off-time) was set as 10 seconds to minimize the damage to the stimulation part. The anti-nociceptive effect was evaluated quantitatively by calculating % MPE (% of maximum possible effect) according to the following formula. [formula] T1: A latent time until beginning of tail-flick before respective drug administration (seconds) T2: A latent time until beginning of tail-flick after respective drug administration (seconds) Tc: A maximum stimulation period (cut-off-time)
The graphs (FIG. 1, FIG. 3, FIG. 5, FIG. 7, FIG. 9, FIG. 11, FIG. 13, FIG. 15, FIG. 17, FIG. 19, FIG. 21, FIG. 23, FIG. 25, FIG. 27, FIG. 29, FIG. 31, FIG. 33 and FIG. 35) showing a time-course variation of % MPE were created, in which a vertical axis is an average value with a standard error (means ±S. E. M.) obtained by calculation of % MPE of respective animals of 10 mice every administration condition of respective drugs and a horizontal axis is a time after administration. After treating % MPE data of each animal of experimental groups with respective doses and % MPE data of each animal of the experimental group with a control Ringer's solution at the same measurement time every drugs using the two-way layout dispersion analysis (two-way ANOVA), the hazard-ratio of P<0.05 was decided to be a significant difference according to Bonferroni post-test.
A lasting time of anti-nociceptive activity of each drug in the present description is the lasting time of anti-nociceptive activity under the dose condition providing the longest lasting time.
ED50 is represented in the unit of mg/Kg.

[2] = tested on: MSU induced knee osteoarthritis pain; experiment: MSU induced knee osteoarthritis pain model, hind leg paw-pressure ratio; type: in vivo, rat; design: key to AUC of time-course variation of anti-nociceptive activity: AUC of the time course of anti-nociceptive activity as % MPE; conditions: for activity lasting-time: orally administered
Description: Experimental animal, male SD type rats, weighing the body weight in the range of 170 to 190 g, were used for the studies. The animals had been kept under constant conditions (room temperature 23±1° C., humidity 52±2%, 12 hours light-and-dark cycle having light time 7:00 to 19:00 and dark time 19:00 to 7:00) until used for an experiment. The animals were fed the mouse solid diet (F2, Funabashi farm. Funabashi, Japan) with unrestricted tap water intake, and kept in captivity for at least more than two days in a laboratory.
Any test drugs were dissolved in Ringer's solution (Fuso Yakuhin) to be used.
MSU was suspended with the suspension solution (10% of polyoxyethylene sorbitan mono-oleate (Tween 80: Nakarai Tesk) as 0.1 g per 1 mL. The animal was anesthetized with diethyl ether and after the surface of its left hind leg knee joint was wiped with 70% ethanol cotton, a porous administration of the suspension solution above noted was conducted into the cavity of let hind leg knee joint.
Pressures to both hind leg paw were measured using a paw-pressure measurement apparatus and recorded. Measurement time at respective times was 4.5 seconds. Calculated paw-pressure ratio (ppr) is a value calculated by dividing the pressure on the left hind leg by the pressure on the right hind leg according to the measured pressures on both hind legs.
The anti-nociceptive effect was evaluated quantitatively by calculating % MPE (% of maximum possible effect) according to the following formula. [formula]
In the formula, ppr 0 and ppr 1 are respective paw-pressure ratios on both hind legs before and after administration. ED50 value of anti-nociceptive activity was calculated using GraphPad Prism data-graph processing software version 4.0, San Diego, Calif., USA.
The strength of anti-nociceptive activity was represented by calculating the time-course variation of anti-nociceptive activity AUC using GraphPad Prism noted above.
Paw-pressure was measured twice at 4 hours after administration to provide ppr by calculation and the average of those values was both hind leg paw-pressure ratio before the drug administration. After the measurement of both hind leg paw-pressure before the drug administration, 0.1 mL of Ringer's solution or a test drug in Ringer's solution per 100 g rat body weight was orally administered, and then a paw-pressure was measured once every unit time after the oral administration.
Statistical processing was conducted using GraphPad Prism. After the two-way layout dispersion analysis, the hazard-ratio of P<0.05 was decided to be a significant difference according to Bonferroni post-test. The hazard-ratios were distinguished into less than 5% (P<0.05) and less than 1% (P<0.01) and represented as “*” and “**” in the same manner conducted for the Tail-flick method.

[3] = mice, p.o., at activity-peak time, parentheses = 95% confidence limit
[4] = mice, s.c., at activity-peak time, parentheses = 95% confidence limit
[5] = rat, MSU knee model, oral 15 mg/kg
[6] = rat, MSU knee model, oral 30 mg/kg

| Molecule | activity-peak time after the oral administration ([1]; mice, p.o.) [min] | Oral ED50 [1, 3] | activity-peak time after the subcutaneous administration ([1]; mice, s.c.) [min] | Subcutaneous ED50 [1, 4] [mg/kg] | activity peak ([2]; rat, MSU knee model, oral) [min] | AUC of time-course variation of anti-nociceptive activity [2, 5] | AUC of time-course variation of anti-nociceptive activity [2, 6] | activity lasting-time ([2]; rat, MSU knee model) [min] | other results |
| --- | --- | --- | --- | --- | --- | --- | --- | --- | --- |
| CN1CC[C@]23c4c5ccc(O)c4O[C@H]2[C@@H](O)C=C[C@H]3[C@H]1C5 [Morphine] | 45 | 29.9 (26.37-33.95) mg/Kg | 30 | 2.51 | 90 | 1724 | 4485 | 300 | ED50 ([1]; Mus musculus, po, mice, p.o., at activity-peak time, parentheses = 95% confidence limit, read-out: Oral ED50): 29.9 mg/kg; lasting time of anti-nociceptive activity ([1]; p.o., dose of 67.5 mg/Kg): 5 h; lasting time of anti-nociceptive activity ([1]; s.c., dose of 5 mg/Kg): 1.5 h; AUC of time-course variation of anti-nociceptive activity ([2]; rat, MSU knee model, oral 60 mg/kg): 13883; ED50 ([2]; rat, MSU knee model, oral, %MPE, range in parentheses, read-out: ED50 value at activity peak): 37.2 mg/kg |
| Iminoethyl-[Tyr]-[D-Met(O)]-[Phe]-[N-MeβAla]-NHCH3 [SS8225-07] | 180 | 2.51 mg/kg | 60 | 0.05 | 120 | 7894 | 20162 | 360 | dosage providing the same AUC, as part of morphine dosage ([1]; AUC of %MPE vs time, either oral or subcutaneous administration (FIG. 37, 38)): a half through one fiftieth; lasting time of anti-nociceptive activity ([1]; p.o., dose of 10 mg/Kg): 8 h; lasting time of anti-nociceptive activity ([1]; s.c., dose of 0.125 mg/Kg): 5 h; anti-nociceptive activity compared with morphine and oxycodone ([2]; knee osteoarthritis model, FIGS. 77 and 78): stronger than morphine, and stronger than or equal to oxycodone; activity lasting-time, times longer than for morphine ([2]; rat, MSU knee model, oral): 1.2 times; AUC of time-course variation of anti-nociceptive activity ([2]; rat, MSU knee model, oral 7.5 mg/kg): 2919; ED50 value at activity peak ([2]; rat, MSU knee model, oral, %MPE, range in parentheses): 16.95 (3.17-90.59) mg/Kg; anti-nociceptive activities, times stronger than for morphine ([2]; rat, MSU knee model, oral, from ED50 of AUCs): ~2.1 times; ED50 of AUCs ([2]; rat, MSU knee model, oral, range in parentheses): 40.38 (31.08-52.48) mg/kg; anti-nociceptive activity lasting-times, times longer than for morphine ([2]; rat, MSU knee model, oral, stated after ED50 at activity peak): 2.2 times |
